{"source": "patent US8951758B2", "about": "“GH61 glycoside hydrolase protein variants and cofactors that enhance GH61 activity” (Codexis, Inc., priority 2011, dated 2015)", "system": "pre-treated wheat straw", "assay": "Biomass assay of a cellulase mixture (GH61a, CBH1a, CBH2b, BGL) with surfactants (FIG. 6)", "type": "biochemical", "conditions": "BGL at 0.3%, 0.15%, 0.08%, 55° C., 72 hours, pH 5", "protocol": "This example illustrates the enhancement of overall saccharification yield with the addition of surfactants such as TWEEN®-20 and PEG-4000. Experiments were designed to monitor the enhancement in cellulase activity with different concentrations of TWEEN®-20 or PEG-4000 in the biomass assay. The biomass assay was performed in a total volume of 90 μL, including 10 mg of pre-treated wheat straw, 64.8 μL (72% by volume) of filtrate (or H2O for no filtrate conditions), and 11.6 μl, of a mixture of sodium acetate buffer (pH 5.0, supplemented with CuSO4), M. thermophila-produced cellobiohydrolase 1a (CBH1a), cellobiohydrolase 2b (CBH2b), beta-glucosidase (BGL), and glycoside hydrolase type 61 (GH61a). The final concentration of sodium acetate was 128 mM (with 30 μM CuSO4) and the enzyme loads of CBH1a, CBH2b, BGL and GH61a were 0.15%, 0.15%, 0.08% and 0.3% with respect to the substrate glucan mass in the biomass substrate, respectively. Water was used in place of the enzymes as a negative control. […]\nData shown are total glucose produced by a mixture of GH61a, CBH1a, CBH2b, and BGL at 0.3%, 0.15%, 0.15%, and 0.08% with respect to the substrate glucan mass in the biomass substrate, respectively. In this Figure, TWEEN®-20 concentrations are expressed as % total reaction volume.\nIn this Figure, PEG-4000 concentrations are expressed as % total reaction volume."}
{"substance": "TWEEN®-20", "values": [{"measurement": "total glucose production in the saccharification reaction", "value": "enhanced"}]}
